We go through three compounds from article PMC5796017, “Enantiomeric Effect of D-Amino Acid Substitution on the Mechanism of Action of α-Helical Membrane-Active Peptides” (International Journal of Molecular Sciences, 2017).

In one data set the test system is P. aeruginosa ATCC27853. The data set can be described thus: Antimicrobial activity, microtiter dilution MIC. As to conditions: G−; MH medium, 5 × 10^5 CFU/mL, 37 °C, 24 h, triplicate. It counts as cell-based, Pseudomonas aeruginosa. On the procedure: (§1) The antimicrobial activity of the peptides was determined by the standard microtiter dilution method and indicated as MIC (minimal inhibitory concentration) as described previously. Briefly, bacteria were cultured in Mueller–Hinton (MH) medium overnight at 37 °C, diluted to a final inoculum of 5 × 10^5 colony-forming units (CFU)/mL with MH and loaded into 96-well microtiter plates (90 μL/well) with serial dilution of peptides (10 μL/well), with a further incubation at 37 °C for 24 h. MIC was expressed as the lowest peptide concentration that inhibited the growth of bacteria. The antimicrobial assays were repeated in triplicate.

A further data set deals with E. coli ATCC25922. The data set can be described thus: Antimicrobial activity, microtiter dilution MIC. It counts as cell-based, Escherichia coli. The following applies: G−; MH medium, 5 × 10^5 CFU/mL, 37 °C, 24 h, triplicate. Here is the method: as §1
Another data set deals with S. epidermidis ATCC12228. In words: Antimicrobial activity, microtiter dilution MIC. Type of data set: cell-based, Staphylococcus epidermidis. As to conditions: G+; MH medium, 5 × 10^5 CFU/mL, 37 °C, 24 h, triplicate. On the procedure: as §1
The next data set relates to HeLa. The data set can be described thus: MTT cell viability assay. Type of data set: cell-based, human. As to conditions: 24 h, mean ± SEM of three independent determinations. On the procedure:
(§2) HeLa, MIA PaCa-2, HPAC, and Bxpc-3 cells were maintained in Dulbecco’s modified Eagle medium) with 10% fetal bovine serum, penicillin (100 U/mL), and streptomycin ([…]) in a humid atmosphere at 37 °C with 5% CO2. The effect of the peptides on the survival of HeLa, MIA PaCa-2, HPAC, and Bxpc-3 cells was determined by 3-(4,5-dimethyl-2-thiazolyl)-2,5-diphenyl-2H-tetrazolium bromide (MTT) assay, as described in a previous study. Briefly, cells were seeded in 96-well plates at a density of 5000 per well. After overnight incubation, cells were incubated, in the absence, or presence of various concentrations of peptides for 24 h. Then, the formazan crystals formed by MTT were dissolved with dimethyl sulfoxide (DMSO) and the absorbance was determined at 492 nm with a microplate reader (GF-M3000; Gaomi Caihong Analytical Instruments Co., Shandong, China). The results were expressed as IC50 values, representing the concentration at which cell viability was reduced by 50%. The cytotoxicity assays were repeated in triplicate.

The next data set concerns MIA PaCa-2. In words: MTT cell viability assay. It counts as cell-based, human. As to conditions: MIA PaCa-2, MTT, 24 h; mean ± SEM of three independent determinations. On the procedure: as §2
A further data set relates to BxPC-3. In words: MTT cell viability assay. It counts as cell-based, human. As to conditions: BxPC-3, MTT, 24 h; mean ± SEM of three independent determinations. On the procedure: as §2
A further data set relates to HPAC. In words: MTT cell viability assay. Type of data set: cell-based, human. The following applies: 24 h, mean ± SEM of three independent determinations. Here is the method:
as §2

Data set [1] can be described thus: Circular dichroism (CD) secondary structure. The following applies: for [θ]222, benign / [θ]222, 50% TFE: CD, 75 μM peptide, 25 °C; for [θ]222, benign: KP buffer (100 mM KCl, 50 mM KH2PO4/K2HPO4, pH 7.4); for [θ]222, 50% TFE / α-Helix (%), 50% TFE (relative helicity): KP buffer with 50% TFE; for α-Helix (%), 50% TFE (relative helicity) / α-Helix (%), benign: relative to molar ellipticity of V13K in 50% TFE; for α-Helix (%), benign: KP buffer. Type of data set: physicochemical. The source says: The influence of the amino acid substitutions on the peptide secondary structure were investigated using circular dichroism (CD) spectroscopy under benign conditions (KP buffer) and under conditions designed to mimic the hydrophobic environment of the membrane (KP buffer with 50% TFE). D-amino acid substitutions reduced the helicity of the peptide analogs relative to that of peptide V13K, in both KP buffer and KP buffer with 50% TFE. […] As shown in Table 2 and Figure S1, the values of the relative helicity of peptides with polar face substitutions are in the order of K14D (76.99%) > S11D/K14D (51.33%) > S11D/K14D/T15D (38.67%). Similarly, the relative helicity of the peptides with substitutions on the non-polar face follows the same trend: A12D (70.83%) > F9D/A12D (38.26%) > F9D/A12D/V16D (36.41%). Since the values of the relative helicity of the peptides with D-amino acid substitutions on the non-polar face were less than those peptide analogs with the same number of D-amino acid substitutions on the polar face, it is clear that the amino acid residues on the non-polar face may be more important for stabilizing the α-helical structure than residues on the polar face.
The secondary structures of the peptides were examined using a Jasco J-810 CD spectrometer (Jasco, Easton, MD, USA) at 25 °C as described previously. […] The mean residue molar ellipticities were calculated according to the equation [θ] = θ/10lCMn, in which, θ represents the ellipticity in millidegrees, l is the optical path length of the cuvette in centimeters, CM is the peptide concentration in mol/L, and n is the number of residues in the peptide. The mean residue molar ellipticities at 222 nm, [θ]222 (degree·cm^2·dmol^−1), were used to calculate the relative helical content of the peptides.

Another data set relates to S. aureus ATCC25923. The data set can be described thus: Antimicrobial activity, microtiter dilution MIC. Type of data set: cell-based, Staphylococcus aureus. As to conditions: G+; MH medium, 5 × 10^5 CFU/mL, 37 °C, 24 h, triplicate. Here is the method:
as §1

For data set [2], the system named is human red blood (hRBC) cells. In words: Hemolytic activity assay. The following applies: for MHC (minimal hemolytic concentration): 2% human RBC in PBS, 37 °C, 2 h, absorbance 578 nm, triplicate; for Hemolytic activity compared with V13K: human red blood cells. It counts as cell-based. Here is the method: The […] of the peptides was measured by a hemolytic activity assay as described previously. Briefly, healthy human RBCs were collected using an anticoagulation tube with EDTAK2 and centrifuged at 1000 rpm for 5 min. The erythrocytes were washed three times, then diluted to a concentration of 2% in phosphate-buffered saline (PBS). The peptides were serially diluted in PBS and 70 μL of the peptide solutions and 2% RBC suspension were added simultaneously to each well of a 96-well plate (round bottom) for a further incubation at 37 °C for 2 h. Then, the plates were centrifuged for 10 min at 3000 rpm and the supernatant (90 μL) was transferred to a 96-well plate (flat bottom). The absorbance of the supernatant was measured on a microplate reader at 578 nm. Erythrocytes in PBS and distilled water were used as the negative (0%) and positive (100%) controls, respectively. The hemolytic activity was calculated as the percentage of experimental group over positive control (100%), after subtraction of negative control (0%). The hemolytic assays were repeated in triplicate.

Data set [3] can be described thus: RP-HPLC retention time as relative hydrophobicity. It counts as physicochemical. As to conditions: 25 °C, used by the paper as measure of relative hydrophobicity. On the procedure: The RP-HPLC retention time has been widely used to represent the relative hydrophobicity of peptides in many studies.The relative hydrophobicity of the peptides was determined by the RP-HPLC retention times at 25 °C. The change in hydrophobicity of the peptides caused by D-amino acid substitutions was mainly due to the disruption of the helical structure.

Converted amounts (≈) assume the structure as drawn.

Regarding `CC[C@H](C)[C@H](NC(=O)[C@H](C)NC(=O)[C@H](CCCCN)NC(=O)[C@H](CC(C)C)NC(=O)[C@H](C)NC(=O)[C@@H](NC(=O)[C@H](Cc1c[nH]cn1)NC(=O)[C@H](CC(C)C)NC(=O)[C@H](NC(=O)[C@@H](NC(=O)[C@H](CCCCN)NC(=O)[C@H](CCCCN)NC(=O)[C@@H](C)NC(=O)[C@H](CO)NC(=O)[C@H](CCCCN)NC(=O)[C@@H](Cc1ccccc1)NC(=O)[C@@H](NC(=O)[C@H](CCCCN)NC(=O)[C@H](CC(C)C)NC(=O)[C@H](Cc1ccccc1)NC(=O)[C@H](CO)NC(=O)[C@H](CCCCN)NC(=O)[C@H](Cc1c[nH]c2ccccc12)NC(=O)[C@H](CCCCN)NC(C)=O)[C@@H](C)O)[C@@H](C)O)C(C)C)[C@@H](C)O)C(=O)N[C@@H](CO)C(=O)N[C@@H](CO)C(N)=O` [F9D/A12D/V16D], the minimum inhibitory concentration (MIC) in the data set with P. aeruginosa ATCC27853, against E. coli ATCC25922, with S. epidermidis ATCC12228 and in the data set on S. aureus ATCC25923 was 125 µM (≈ 374 µg/mL) throughout. Besides, the IC50 in the data set with HeLa came to 125 ± 3.4 µM; in the data set with MIA PaCa-2 it was 57.9 ± 2.8 µM; in the data set with BxPC-3, 125 ± 1.8 µM; with HPAC, 95.6 ± 1.8 µM. Moreover, in data set [1], the “[θ]222, benign” value was −1907.83 degree·cm^2·dmol^−1. The “[θ]222, 50% TFE” value in data set [1] is listed as −18,393.1 degree·cm^2·dmol^−1. Moreover, the “α-Helix (%), 50% TFE (relative helicity)” value in data set [1] is 36.41%. Besides, in [1], the “α-Helix (%), benign” value amounted to 3.8%. Moreover, the “MHC (minimal hemolytic concentration)” value in [2] is above 500 µM. Besides, in [2], the “Hemolytic activity compared with V13K” value is given as “much less hemolytic activity than V13K”. For the same compound, the “tR (RP-HPLC retention time), relative hydrophobicity” value (shortened to “tR … relative hydrophobicity”) in data set [3] is 39.06 min.

In the case of `CC[C@H](C)[C@H](NC(=O)[C@H](C)NC(=O)[C@H](CCCCN)NC(=O)[C@H](CC(C)C)NC(=O)[C@H](C)NC(=O)[C@@H](NC(=O)[C@H](Cc1c[nH]cn1)NC(=O)[C@H](CC(C)C)NC(=O)[C@@H](NC(=O)[C@H](NC(=O)[C@@H](CCCCN)NC(=O)[C@H](CCCCN)NC(=O)[C@H](C)NC(=O)[C@@H](CO)NC(=O)[C@H](CCCCN)NC(=O)[C@H](Cc1ccccc1)NC(=O)[C@@H](NC(=O)[C@H](CCCCN)NC(=O)[C@H](CC(C)C)NC(=O)[C@H](Cc1ccccc1)NC(=O)[C@H](CO)NC(=O)[C@H](CCCCN)NC(=O)[C@H](Cc1c[nH]c2ccccc12)NC(=O)[C@H](CCCCN)NC(C)=O)[C@@H](C)O)[C@H](C)O)C(C)C)[C@@H](C)O)C(=O)N[C@@H](CO)C(=O)N[C@@H](CO)C(N)=O` [S11D/K14D/T15D], the MIC against P. aeruginosa ATCC27853 is 125 µM (≈ 374 µg/mL); with E. coli ATCC25922, 125 µM (≈ 374 µg/mL); in the data set on S. epidermidis ATCC12228, 16 µM (≈ 47.9 µg/mL); against S. aureus ATCC25923, 64 µM (≈ 191 µg/mL). Moreover, the IC50 with HeLa was found to be 41.1 ± 0.5 µM; with MIA PaCa-2, 56.8 ± 3.3 µM; with BxPC-3, 45.5 ± 5.6 µM; in the data set with HPAC it was 54.2 ± 1.2 µM. Moreover, the “[θ]222, benign” value in [1] was −2845.85 degree·cm^2·dmol^−1. Also, the “[θ]222, 50% TFE” value in data set [1] was −19,537.5 degree·cm^2·dmol^−1. In addition, the “α-Helix (%), 50% TFE (relative helicity)” value in [1] was determined as 38.67%. The “α-Helix (%), benign” value in [1] is recorded as 5.6%. Also, the “MHC (minimal hemolytic concentration)” value in [2] was 250 µM. Moreover, the “tR … relative hydrophobicity” value in data set [3] is reported as 39.59 min.

Regarding `CC[C@H](C)[C@H](NC(=O)[C@H](C)NC(=O)[C@H](CCCCN)NC(=O)[C@H](CC(C)C)NC(=O)[C@H](C)NC(=O)[C@@H](NC(=O)[C@H](Cc1c[nH]cn1)NC(=O)[C@H](CC(C)C)NC(=O)[C@H](NC(=O)[C@@H](NC(=O)[C@H](CCCCN)NC(=O)[C@H](CCCCN)NC(=O)[C@@H](C)NC(=O)[C@H](CO)NC(=O)[C@H](CCCCN)NC(=O)[C@H](Cc1ccccc1)NC(=O)[C@@H](NC(=O)[C@H](CCCCN)NC(=O)[C@H](CC(C)C)NC(=O)[C@H](Cc1ccccc1)NC(=O)[C@H](CO)NC(=O)[C@H](CCCCN)NC(=O)[C@H](Cc1c[nH]c2ccccc12)NC(=O)[C@H](CCCCN)NC(C)=O)[C@@H](C)O)[C@@H](C)O)C(C)C)[C@@H](C)O)C(=O)N[C@@H](CO)C(=O)N[C@@H](CO)C(N)=O` [A12D/V16D], the MIC in the data set with P. aeruginosa ATCC27853 is 32 µM (≈ 95.7 µg/mL); against E. coli ATCC25922, 125 µM (≈ 374 µg/mL); against S. epidermidis ATCC12228, 125 µM (≈ 374 µg/mL); against S. aureus ATCC25923, 125 µM (≈ 374 µg/mL). In addition, the IC50 in the data set with HeLa came to 60.1 ± 1.2 µM; in the data set with MIA PaCa-2, 46.2 ± 3 µM; with BxPC-3 it was 125 ± 5.9 µM; in the data set on HPAC, 41.4 ± 1.4 µM. For the same compound, the “[θ]222, benign” value in data set [1] was −3435.72 degree·cm^2·dmol^−1. Moreover, the “[θ]222, 50% TFE” value in data set [1] was −23,452.9 degree·cm^2·dmol^−1. The “α-Helix (%), 50% TFE (relative helicity)” value in [1] is given as 46.42%. The “α-Helix (%), benign” value in [1] is 6.8%. The “MHC (minimal hemolytic concentration)” value in data set [2] was above 500 µM. In data set [2], the “Hemolytic activity compared with V13K” value is “much less hemolytic activity than V13K”. Besides, in data set [3], the “tR … relative hydrophobicity” value is recorded as 39.79 min.
